Source: patent US4311702A, “Imidazo[1,2-a]pyridines having anti-ulcer activity” (Poli Industria Chimica S.p.A., priority 1979, dated 1982)
Read-outs that look alike come from different tables or passages of the source.

Assays:
[1] = test system: cold and restraint gastric ulcers; test: Cold and restraint gastric ulcers in the rat; type: in vivo, rat (Wistar female); conditions: po, read-out: Cold and restraint gastric ulcers ED50
Method: cold and restraint gastric ulcers induced in the rat following the under mentioned method originally described by E. C. Senay and R. J. Levine in Proc. Soc.
Wistar female rats fasting from the previous evening are introduced in plastic tubes having such a diameter to exert a light constriction and immediately after they are put in a thermoregulated ambient at about 4° C. Two hours later the rats are sacrificed under ethereal anesthesia and their stomachs are examined to ascertain the presence of ulcers.
The ulcer index of each stomach is determined, multiplying the number of gastric lesions of any kind by a corresponding arbitrary value (petechiae=0.5; punctiform ulcer=1; linear ulcer<2 mm=2; linear ulcer>2 mm=3) and adding the partial scores. Rats are treated with the compound under study half an hour before cold exposure.

[2] = test system: acetylsalicylic acid and pylorus ligation gastric ulcers; test: Acetylsalicylic acid and pylorus ligation gastric ulcers in the rat; type: in vivo, rat (Wistar male); conditions: read-out: Acetylsalicylic acid and pylorus ligation gastric ulcers ED50
Method: Wistar male rats, weighing 160-200 g, fasting from the previous evening are administered intraduodenum with the compound under study immediately after pylorus ligation under light ethereal anesthesia. Two hours after treatment rats receive orally 50 mg/kg of acetylsalicylic acid, dissolved in 5% gum arabic solution. An hour later rats are sacrificed under ether anesthesia and stomachs examined for presence of ulcers.

[3] = test system: indomethacin gastric ulcers; test: Indomethacin gastric ulcers in the rat; type: in vivo, rat (Wistar male); conditions: po, read-out: Indomethacin gastric ulcers ED50
Method: indomethacin gastric ulcers, induced in the rat following the under mentioned method originally described by Y. H. Lee, K. W. Mollison, W. C. Cheng in Arch. Int. Pharmacodyn.
Wistar male rats, weighing 160-200 g, starved for 24 hours, are administered endoperitoneally with 30 mg/kg of indomethacin in 0.6% aqueous suspension of 1% gum arabic solution and immediately after they are treated orally with the compound under study. 5 hours later animals are sacrificed under ethereal anesthesia, the stomachs are removed, open along the great curvature and examined for the presence of ulcers. The ulcer index is expressed in terms of square root of the number of gastric ulcers.

[4] = test system: gastric secretion (hydrochloric acid); test: Activity on gastric secretion in Shay rats (total acidity); type: in vivo, rat (Wistar male); conditions: Rattus norvegicus, read-out: Shay rats total acidity ED50
Method: Wistar male rats, weighing 160-200 g, starved for 24 hours are treated orally with the compound under study after pylorus ligation under light ethereal anesthesia. 4 hours later rats are anesthetized with ether and after oesophagus ligation, the stomachs are removed and the contents collected. After centrifugation of the gastric juice, the quantity of hydrochloric acid is determined by titration with 0.01 N Sodium hydroxide, using phenolphthalein as indicator.

[5] = os, half an hour before cold exposure, dose reducing the ulcer index by 50% compared with controls
[6] = intraduodenum immediately after pylorus ligation, dose reducing the number of ulcers by 50% compared with controls
[7] = os, 30 mg/kg indomethacin endoperitoneally, dose reducing the ulcer index by 50% compared with controls
[8] = i.d. (Table 2 head), 4 hours after pylorus ligation, dose reducing secretion of hydrochloric acid by 50% compared with controls

Row | SMILES | ED50 [1, 5] [mg/kg] | ED50 [2, 6] [mg/kg] | ED50 [3, 7] [mg/kg] | ED50 [4, 8] [mg/kg] | ED50 [1] [mg/kg] | ED50 [2] [mg/kg] | ED50 [3] [mg/kg] | ED50 ([4]; 4 h) [mg/kg]
1 | CNC(=NC#N)NCCSCc1cnc2ccccn12 [Ia] | 2.8 | 7.3 | 3.4 | 1.8 | – | – | – | –
2 | CNC(=NC#N)NCCSCc1c(C)nc2ccccn12 [Ib] | 1.5 | 2.1 | 0.7 | 1.1 | – | – | – | –
3 | CNC(=NC#N)NCCSC(C)c1c(C)nc2ccccn12 (centres unmarked) [Id] | 0.7 | 0.9 | 0.9 | 0.6 | – | – | – | –
4 | CN/C(=N/CCSCc1nc[nH]c1C)NC#N [[…], Cimetidine, reference compound] | – | – | – | – | 6.3 | 3.8 | 2.4 | 0.6
5 | CNC(=NC#N)NCCSC(C)c1cnc2ccccn12 (centres unmarked) [Ic] | 1.9 | 5.7 | 3.3 | 2.8 | – | – | – | –
